Test results reported in patent US9340590B2 (priority 2011, dated 2016).
Where two headings read alike, the source gives them in different places. Positions of bridges follow the written chain, without caps; N, C: chain ends. Non-standard residues stand in square brackets, D forms with d. Residues, ends and D or L forms follow the SMILES beside them. Trp(1-Me) = Cn1cc(C[C@H](N)C(=O)O)c2ccccc21; Arg(Me2s) = CN=C(NC)NCCC[C@H](N)C(=O)O; 2Pal = N[C@@H](Cc1ccccn1)C(=O)O; Dap = NC[C@H](N)C(=O)O

Experiments:
Assay in all cases: cell-based
[1] = molecular target: hNav1.3 (Homo sapiens, UniProt Q9NY46); settings: IonWorks Quattro, read-out: IWQ Use Nav1.3
Sequence of hNav1.3 (Q9NY46 whole entry, looked up): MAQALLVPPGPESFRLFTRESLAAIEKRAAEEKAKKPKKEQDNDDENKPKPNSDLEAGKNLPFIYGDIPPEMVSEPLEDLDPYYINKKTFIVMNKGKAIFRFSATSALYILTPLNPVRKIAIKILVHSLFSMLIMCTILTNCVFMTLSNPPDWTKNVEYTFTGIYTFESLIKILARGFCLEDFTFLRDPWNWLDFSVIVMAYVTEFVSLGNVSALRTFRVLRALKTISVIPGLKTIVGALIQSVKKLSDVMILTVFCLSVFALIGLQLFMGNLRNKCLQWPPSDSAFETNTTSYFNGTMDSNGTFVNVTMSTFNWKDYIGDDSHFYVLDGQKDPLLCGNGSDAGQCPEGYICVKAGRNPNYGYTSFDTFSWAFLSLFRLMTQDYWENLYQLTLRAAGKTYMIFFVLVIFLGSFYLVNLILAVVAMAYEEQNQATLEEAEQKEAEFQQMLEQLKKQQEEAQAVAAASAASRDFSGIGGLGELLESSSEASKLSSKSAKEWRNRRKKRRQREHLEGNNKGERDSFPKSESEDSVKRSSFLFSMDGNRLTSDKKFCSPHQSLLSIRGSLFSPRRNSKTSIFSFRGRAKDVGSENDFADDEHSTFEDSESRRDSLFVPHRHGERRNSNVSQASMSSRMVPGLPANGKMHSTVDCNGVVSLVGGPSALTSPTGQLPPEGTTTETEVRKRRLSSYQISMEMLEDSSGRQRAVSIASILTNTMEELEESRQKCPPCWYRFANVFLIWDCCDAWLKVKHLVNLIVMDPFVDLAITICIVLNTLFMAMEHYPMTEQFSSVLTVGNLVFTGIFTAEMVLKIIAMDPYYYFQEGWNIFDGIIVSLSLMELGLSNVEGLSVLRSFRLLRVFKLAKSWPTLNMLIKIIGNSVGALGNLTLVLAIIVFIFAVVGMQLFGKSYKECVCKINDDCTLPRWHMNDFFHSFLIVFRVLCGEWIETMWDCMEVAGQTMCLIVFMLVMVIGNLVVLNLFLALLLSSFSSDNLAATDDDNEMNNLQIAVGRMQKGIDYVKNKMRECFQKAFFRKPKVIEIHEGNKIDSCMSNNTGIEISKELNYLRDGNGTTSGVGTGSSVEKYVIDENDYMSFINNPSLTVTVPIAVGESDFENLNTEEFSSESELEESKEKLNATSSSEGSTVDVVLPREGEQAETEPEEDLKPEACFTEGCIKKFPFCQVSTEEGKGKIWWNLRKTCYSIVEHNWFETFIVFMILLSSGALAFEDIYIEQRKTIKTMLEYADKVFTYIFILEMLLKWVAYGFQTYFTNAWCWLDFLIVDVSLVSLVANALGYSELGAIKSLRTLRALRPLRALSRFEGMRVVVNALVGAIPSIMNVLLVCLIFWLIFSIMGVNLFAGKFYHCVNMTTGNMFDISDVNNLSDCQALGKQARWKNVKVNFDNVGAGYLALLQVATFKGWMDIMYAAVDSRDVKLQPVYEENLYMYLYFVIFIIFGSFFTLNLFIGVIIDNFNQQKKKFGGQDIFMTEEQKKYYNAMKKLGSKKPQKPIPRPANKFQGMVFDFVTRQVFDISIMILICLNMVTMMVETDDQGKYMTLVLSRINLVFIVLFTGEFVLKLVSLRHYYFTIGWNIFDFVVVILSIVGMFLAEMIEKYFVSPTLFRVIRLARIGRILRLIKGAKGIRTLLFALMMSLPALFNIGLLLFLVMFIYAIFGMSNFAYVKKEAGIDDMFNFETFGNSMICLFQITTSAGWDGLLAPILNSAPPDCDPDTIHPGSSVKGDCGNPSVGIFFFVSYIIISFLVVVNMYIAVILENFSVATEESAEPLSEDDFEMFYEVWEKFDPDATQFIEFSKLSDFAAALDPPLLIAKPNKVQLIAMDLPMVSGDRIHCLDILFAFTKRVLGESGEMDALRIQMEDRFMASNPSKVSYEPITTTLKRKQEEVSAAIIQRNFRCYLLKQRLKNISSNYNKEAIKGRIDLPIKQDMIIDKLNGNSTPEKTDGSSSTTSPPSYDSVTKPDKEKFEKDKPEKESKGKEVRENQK

[2] = molecular target: hNav1.5 (Homo sapiens, UniProt Q14524)
Sequence of hNav1.5 (Q14524 whole entry, looked up): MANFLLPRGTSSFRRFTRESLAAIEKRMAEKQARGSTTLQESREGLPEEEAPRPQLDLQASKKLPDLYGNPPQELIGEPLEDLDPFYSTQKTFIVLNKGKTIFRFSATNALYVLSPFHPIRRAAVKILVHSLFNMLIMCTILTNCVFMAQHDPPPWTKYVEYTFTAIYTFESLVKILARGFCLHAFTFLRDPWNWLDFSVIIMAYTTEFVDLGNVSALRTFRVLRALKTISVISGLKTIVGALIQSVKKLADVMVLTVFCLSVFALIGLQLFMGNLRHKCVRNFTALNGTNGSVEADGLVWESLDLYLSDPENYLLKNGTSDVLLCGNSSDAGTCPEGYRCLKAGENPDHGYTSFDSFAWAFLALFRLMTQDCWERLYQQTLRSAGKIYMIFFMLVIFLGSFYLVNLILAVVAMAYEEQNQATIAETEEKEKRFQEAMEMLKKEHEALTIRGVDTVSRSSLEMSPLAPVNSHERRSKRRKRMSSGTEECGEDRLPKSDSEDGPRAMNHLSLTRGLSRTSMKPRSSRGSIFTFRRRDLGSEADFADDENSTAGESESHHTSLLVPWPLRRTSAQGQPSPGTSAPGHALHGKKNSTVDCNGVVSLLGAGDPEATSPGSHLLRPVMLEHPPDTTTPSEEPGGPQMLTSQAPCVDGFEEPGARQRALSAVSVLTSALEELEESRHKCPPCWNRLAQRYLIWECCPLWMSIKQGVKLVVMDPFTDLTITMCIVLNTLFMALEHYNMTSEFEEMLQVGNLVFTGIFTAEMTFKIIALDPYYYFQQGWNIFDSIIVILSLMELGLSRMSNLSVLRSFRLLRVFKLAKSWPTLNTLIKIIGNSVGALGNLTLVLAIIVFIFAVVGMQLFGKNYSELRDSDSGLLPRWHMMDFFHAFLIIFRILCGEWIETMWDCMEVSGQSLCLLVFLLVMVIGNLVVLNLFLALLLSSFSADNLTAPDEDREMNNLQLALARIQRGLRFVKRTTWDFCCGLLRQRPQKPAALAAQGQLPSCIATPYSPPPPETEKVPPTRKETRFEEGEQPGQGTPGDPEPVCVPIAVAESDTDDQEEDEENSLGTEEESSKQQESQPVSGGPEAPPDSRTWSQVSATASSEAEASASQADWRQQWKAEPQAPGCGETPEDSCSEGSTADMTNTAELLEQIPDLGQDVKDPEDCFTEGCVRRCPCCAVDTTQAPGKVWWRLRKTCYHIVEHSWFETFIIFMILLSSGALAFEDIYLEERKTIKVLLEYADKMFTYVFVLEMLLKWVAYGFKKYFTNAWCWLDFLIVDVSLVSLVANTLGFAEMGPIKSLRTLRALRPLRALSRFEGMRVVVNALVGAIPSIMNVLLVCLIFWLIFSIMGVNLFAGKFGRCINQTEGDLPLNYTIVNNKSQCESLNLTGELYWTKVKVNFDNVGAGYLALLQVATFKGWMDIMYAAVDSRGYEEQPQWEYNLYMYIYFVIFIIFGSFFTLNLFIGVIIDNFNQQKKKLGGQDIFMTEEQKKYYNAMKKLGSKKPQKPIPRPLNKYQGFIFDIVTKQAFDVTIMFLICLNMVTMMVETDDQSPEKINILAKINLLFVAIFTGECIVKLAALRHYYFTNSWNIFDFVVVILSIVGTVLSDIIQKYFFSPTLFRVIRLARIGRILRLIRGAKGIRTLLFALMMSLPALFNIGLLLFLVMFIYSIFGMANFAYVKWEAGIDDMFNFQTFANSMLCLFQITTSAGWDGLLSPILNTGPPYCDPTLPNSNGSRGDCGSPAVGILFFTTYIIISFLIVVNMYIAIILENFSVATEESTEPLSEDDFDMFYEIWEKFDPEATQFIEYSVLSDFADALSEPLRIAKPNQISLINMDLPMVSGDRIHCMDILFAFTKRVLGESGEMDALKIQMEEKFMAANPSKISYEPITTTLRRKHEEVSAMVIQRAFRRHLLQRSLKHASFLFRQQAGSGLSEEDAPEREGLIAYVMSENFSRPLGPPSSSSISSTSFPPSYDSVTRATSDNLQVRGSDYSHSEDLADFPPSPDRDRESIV

[3] = molecular target: hNav1.7 (Homo sapiens, UniProt Q15858); type: cell-based; settings: read-out: IWQ Use Nav1.7
[4] = IonWorks Quattro, use-dependent block, hNav1.5, read-out: IWQ Use Nav1.5
[5] = IonWorks Quattro, use-dependent block, hNav1.7
[6] = IonWorks Quattro, Use, read-out: IWQ Use Nav1.5

Row | SMILES | IC50 ([1]; use-dependent block, hNav1.3) [µM] | IC50 [2, 4] [µM] | IC50 [3, 5] [µM] | IC50 ([1]; Use) [µM] | further results
1 | CC[C@H](C)[C@@H]1NC(=O)[C@@H]2CSSC[C@@H]3NC(=O)[C@H](C(C)C)NC(=O)[C@H](CC(C)C)NC(=O)[C@H](CC(N)=O)NC(=O)[C@@H]4CCCN4C(=O)[C@H](CCCNC(=N)N)NC(=O)[C@H](CSSC[C@H](NC(=O)[C@@H](N)CC(=O)O)C(=O)N[C@@H](CC(C)C)C(=O)NCC(=O)N[C@@H](C)C(=O)N[C@@H](CC[S+](C)[O-])C(=O)N[C@@H](CCCNC(=N)N)C(=O)N[C@@H](CCCCN)C(=O)N2)NC(=O)[C@H](CSSC[C@@H](C(=O)N[C@@H](CCCCN)C(=O)N[C@@H](Cc2ccc(O)cc2)C(=O)N[C@H](C(=O)N[C@@H](Cc2ccccc2)C(N)=O)C(C)C)NC(=O)[C@H](Cc2c[nH]c4ccccc24)NC(=O)[C@H](CCCCN)NC(=O)[C@H](Cc2c[nH]cn2)NC(=O)[C@H]([C@@H](C)O)NC(=O)[C@H](CCCNC(=N)N)NC(=O)[C@H](CO)NC3=O)NC(=O)[C@H](CCCCN)NC(=O)[C@H](CC(=O)O)NC(=O)[C@H](CC(N)=O)NC(=O)[C@H](CC(=O)O)NC(=O)[C@@H]2CCCN2C1=O (single isomer, unassigned) [compound 792] | > 5 | 49.8 | > 5 |  | 
2 | CC[C@H](C)[C@@H]1NC(=O)[C@@H]2CSSC[C@@H]3NC(=O)[C@H](C(C)C)NC(=O)[C@H](Cc4ccccn4)NC(=O)[C@H](CC(N)=O)NC(=O)[C@@H]4CCCN4C(=O)[C@H](CCCNC(=N)N)NC(=O)[C@H](CSSC[C@H](NC(=O)[C@@H](N)CC(=O)O)C(=O)N[C@@H](CC(C)C)C(=O)NCC(=O)N[C@@H](Cc4ccccc4)C(=O)N[C@@H](CCSC)C(=O)N[C@@H](CCCNC(=N)N)C(=O)N[C@@H](CCCCN)C(=O)N2)NC(=O)[C@H](CSSC[C@@H](C(=O)N[C@@H](CCCCN)C(=O)N[C@@H](Cc2ccc(O)cc2)C(=O)N[C@H](C(=O)N[C@@H](Cc2ccccc2)C(N)=O)C(C)C)NC(=O)[C@H](Cc2c[nH]c4ccccc24)NC(=O)[C@H](CCCCN)NC(=O)[C@H](Cc2c[nH]cn2)NC(=O)[C@H]([C@@H](C)O)NC(=O)[C@H](CCCNC(=N)N)NC(=O)[C@H](CO)NC3=O)NC(=O)[C@H](CCCCN)NC(=O)[C@H](CC(=O)O)NC(=O)[C@H](CC(N)=O)NC(=O)[C@H](CC(=O)O)NC(=O)[C@@H]2CCCN2C1=O [compound 318] (H-DCLGFMRKCIPDNDKCCRPN[2Pal]VCSRTHKWCKYVF-NH2; disulfide 2-17, 9-23, 16-30) |  |  |  | 0.08 | IC50 [2, 6]: 7.52 µM; IC50 ([3]; IonWorks Quattro, Use): 0.18 µM
3 | CC[C@H](C)[C@@H]1NC(=O)[C@@H]2CSSC[C@@H]3NC(=O)[C@H](C(C)C)NC(=O)[C@H](CC(C)C)NC(=O)[C@H](CC(N)=O)NC(=O)[C@@H]4CCCN4C(=O)[C@H](CCCNC(=N)N)NC(=O)[C@H](CSSC[C@H](NC(=O)[C@@H](N)CC(=O)O)C(=O)N[C@@H](CC(C)C)C(=O)NCC(=O)N[C@@H](Cc4ccccc4)C(=O)N[C@@H](CCSC)C(=O)N[C@@H](CCCNC(=N)N)C(=O)N[C@@H](CCCCN)C(=O)N2)NC(=O)[C@H](CSSC[C@@H](C(=O)N[C@@H](CCCCN)C(=O)N[C@@H](Cc2ccc(O)cc2)C(=O)N[C@H](C(=O)N[C@@H](Cc2ccccc2)C(N)=O)C(C)C)NC(=O)[C@H](Cc2c[nH]c4ccccc24)NC(=O)[C@H](CCCCN)NC(=O)[C@H](Cc2c[nH]cn2)NC(=O)[C@H]([C@@H](C)O)NC(=O)[C@H](CCCNC(=N)N)NC(=O)[C@H](CO)NC3=O)NC(=O)[C@H](CCCNC(=NC)NC)NC(=O)[C@H](CC(=O)O)NC(=O)[C@H](CC(N)=O)NC(=O)[C@H](CC(=O)O)NC(=O)[C@@H]2CCCN2C1=O [compound 312] (H-DCLGFMRKCIPDND[Arg(Me2s)]CCRPNLVCSRTHKWCKYVF-NH2; disulfide 2-17, 9-23, 16-30) |  |  |  | 0.15 | IC50 [2, 6]: 9.67 µM; IC50 ([3]; IonWorks Quattro, Use): 0.14 µM
4 | CC[C@H](C)[C@@H]1NC(=O)[C@@H]2CSSC[C@@H]3NC(=O)[C@H](C(C)C)NC(=O)[C@H](CC(C)C)NC(=O)[C@H](CC(N)=O)NC(=O)[C@H](CO)NC(=O)[C@H](CCCNC(=N)N)NC(=O)[C@H](CSSC[C@H](NC(=O)[C@@H](N)CC(=O)O)C(=O)N[C@@H](CC(C)C)C(=O)NCC(=O)N[C@@H](Cc4ccccc4)C(=O)N[C@@H](CCSC)C(=O)N[C@@H](CCCNC(=N)N)C(=O)N[C@@H](CCCCN)C(=O)N2)NC(=O)[C@H](CSSC[C@@H](C(=O)N[C@@H](CCCCN)C(=O)N[C@@H](Cc2cn(C)c4ccccc24)C(=O)N[C@H](C(=O)N[C@@H](Cc2ccccc2)C(N)=O)C(C)C)NC(=O)[C@H](Cc2c[nH]c4ccccc24)NC(=O)[C@H](CCCCN)NC(=O)[C@H](Cc2c[nH]cn2)NC(=O)[C@H]([C@@H](C)O)NC(=O)[C@H](CCCNC(=N)N)NC(=O)[C@H](CO)NC3=O)NC(=O)[C@H](CCCCN)NC(=O)[C@H](CC(=O)O)NC(=O)[C@H](CC(N)=O)NC(=O)[C@H](CC(=O)O)NC(=O)[C@@H]2CCCN2C1=O [compound 695] (H-DCLGFMRKCIPDNDKCCRSNLVCSRTHKWCK[Trp(1-Me)]VF-NH2; disulfide 2-17, 9-23, 16-30) |  |  |  |  | IC50 ([1]; use-dependent protocol, hNav1.3): 0.03 µM; IC50 ([2]; IonWorks Quattro, use-dependent protocol, hNav1.5, read-out: IWQ Use Nav1.5): > 5 µM; IC50 ([3]; IonWorks Quattro, use-dependent protocol, hNav1.7): 0.03 µM
5 | CC[C@H](C)[C@@H]1NC(=O)[C@@H]2CSSC[C@@H]3NC(=O)[C@H](C(C)C)NC(=O)[C@H](CC(C)C)NC(=O)[C@H](CC(N)=O)NC(=O)[C@@H]4CCCN4C(=O)[C@H](CCCNC(=NC)NC)NC(=O)[C@H](CSSC[C@H](NC(=O)[C@@H](N)CC(=O)O)C(=O)N[C@@H](CC(C)C)C(=O)NCC(=O)N[C@@H](Cc4ccccc4)C(=O)N[C@@H](CCSC)C(=O)N[C@@H](CCCNC(=N)N)C(=O)N[C@@H](CCCCN)C(=O)N2)NC(=O)[C@H](CSSC[C@@H](C(=O)N[C@@H](CCCCN)C(=O)N[C@@H](Cc2ccc(O)cc2)C(=O)N[C@H](C(=O)N[C@@H](Cc2ccccc2)C(N)=O)C(C)C)NC(=O)[C@H](Cc2c[nH]c4ccccc24)NC(=O)[C@H](CCCCN)NC(=O)[C@H](Cc2c[nH]cn2)NC(=O)[C@H]([C@@H](C)O)NC(=O)[C@H](CCCNC(=N)N)NC(=O)[C@H](CO)NC3=O)NC(=O)[C@H](CCCCN)NC(=O)[C@H](CC(=O)O)NC(=O)[C@H](CC(N)=O)NC(=O)[C@H](CC(=O)O)NC(=O)[C@@H]2CCCN2C1=O [compound 315] |  |  |  | 0.1 | IC50 ([2]; IWQ Use Nav1.5 (μM)): 10.5 µM; IC50 [3]: 0.14 µM
6 | CC(C)C[C@@H]1NC(=O)[C@@H](NC(=O)[C@@H](N)CC(=O)O)CSSC[C@@H]2NC(=O)[C@@H]3CSSC[C@@H](C(=O)N[C@@H](CCCCN)C(=O)N[C@@H](Cc4ccc(O)cc4)C(=O)N[C@H](C(=O)N[C@@H](Cc4ccccc4)C(N)=O)C(C)C)NC(=O)[C@H](Cc4c[nH]c5ccccc45)NC(=O)[C@H](CCCCN)NC(=O)[C@H](Cc4c[nH]cn4)NC(=O)[C@H]([C@@H](C)O)NC(=O)[C@H](CCCNC(=N)N)NC(=O)[C@H](CO)NC(=O)[C@H](CSSC[C@H](NC(=O)[C@H](CCCCN)NC(=O)[C@H](CCCNC(=N)N)NC(=O)[C@H](Cc4ccccc4)NC(=O)CNC(=O)CNC1=O)C(=O)N[C@@H](CCC(=O)O)C(=O)N1CCC[C@H]1C(=O)N[C@@H](CC(=O)O)C(=O)N[C@@H](CC(N)=O)C(=O)N[C@@H](CC(=O)O)C(=O)N[C@@H](CCCCN)C(=O)N3)NC(=O)[C@H](C(C)C)NC(=O)[C@H](CC(C)C)NC(=O)[C@H](CC(N)=O)NC(=O)[C@@H]1CCCN1C(=O)[C@H](CCCNC(=N)N)NC2=O [compound 754] (H-DCLGGFRKCEPDNDKCCRPNLVCSRTHKWCKYVF-NH2; disulfide 2-17, 9-23, 16-30) | 0.33 | 34.2 | 0.35 |  | 
7 | CC[C@H](C)[C@@H]1NC(=O)[C@@H]2CSSC[C@@H]3NC(=O)[C@H](C(C)C)NC(=O)[C@H](CC(C)C)NC(=O)[C@H](CC(N)=O)NC(=O)[C@@H]4CCCN4C(=O)[C@H](CCCNC(=N)N)NC(=O)[C@H](CSSC[C@H](NC(=O)[C@@H](N)CC(=O)O)C(=O)N[C@@H](CC(C)C)C(=O)NCC(=O)N[C@@H](C)C(=O)N[C@@H](CCSC)C(=O)N[C@@H](CCCNC(=N)N)C(=O)N[C@@H](CCCCN)C(=O)N2)NC(=O)[C@H](CSSC[C@@H](C(=O)N[C@@H](CCCCN)C(=O)N[C@@H](Cc2ccc(O)cc2)C(=O)N[C@H](C(=O)N[C@@H](Cc2ccccc2)C(N)=O)C(C)C)NC(=O)[C@H](Cc2c[nH]c4ccccc24)NC(=O)[C@H](CN)NC(=O)[C@H](Cc2c[nH]cn2)NC(=O)[C@H]([C@@H](C)O)NC(=O)[C@H](CCCNC(=N)N)NC(=O)[C@H](CO)NC3=O)NC(=O)[C@H](CCCCN)NC(=O)[C@H](CC(=O)O)NC(=O)[C@H](CC(N)=O)NC(=O)[C@H](CC(=O)O)NC(=O)[C@@H]2CCCN2C1=O [compound 747] (H-DCLGAMRKCIPDNDKCCRPNLVCSRTH[Dap]WCKYVF-NH2; disulfide 2-17, 9-23, 16-30) | 0.78 | 38.3 | 0.37 |  | 
